{"source": "patent US20090182035A1", "about": "“USE OF A COMBINATION OF OLOPATADINE AND CILOMILAST TO TREAT NON-INFECTIOUS RHINITIS AND ALLERGIC CONJUNCTIVITIS” (Alcon Research, Ltd., priority 2007, published 2009)", "key": {"[1]": {"test_system": "eosinophil peroxidase (EPO) activity", "test": "Passive conjunctival anaphylaxis, eosinophil peroxidase (EPO) activity in conjunctivae (allergic inflammation)", "assay_type": "in vivo, guinea pig", "details": "0.1% topical 20 μL drop 60 min prior to and 8 hours after challenge; for EPO Activity % Inhibition: conjunctivae 24 hours after challenge, versus vehicle only, * P < 0.05; for EPO Activity Mean: conjunctivae collected 24 hours after challenge", "protocol": "(§1) Drugs were prepared in standard ophthalmic suspension vehicle and allowed to vortex overnight. Cilomilast and olopatadine were prepared in the same drop by preparing separate 0.2% formulations and then combining them 50:50 to yield a 0.1% concentration of each drug. In groups where cilomilast and olopatadine were given in consecutive drops, olopatadine was applied first followed 5 minutes later by cilomilast. All topical drops were administered as a single 20 μL application. Guinea pigs (male Hartley outbred, 250-300 g) were divided into groups of six. Animals were passively sensitized to ovalbumin by a single subconjunctival injection to the right eye of 10 μL of undiluted anti-ovalbumin guinea pig serum (antiserum). One group was injected with saline only. Twenty-four hours after sensitization all groups were topically challenged with 0.5 mg of ovalbumin in saline to the right eye. Animals were pre-treated with drug or vehicle 60 minutes prior to challenge. Thirty minutes after topical challenge each animal was scored by a masked observer for clinical signs of conjunctivitis, redness/congestion, swelling, and tearing/discharge, with a total score of 0 to 10. Animals were dosed a second time with drug or vehicle 8 hours after challenge. Animals were euthanized 24 hours after challenge and conjunctivae were collected and assayed for eosinophil peroxidase (EPO) activity, an indirect marker of tissue eosinophil concentration. Briefly, tissue samples were weighed frozen, then mechanically homogenized in 50 mM HEPES buffer, pH 6.5, containing 0.5% cetyltrimethylammonium chloride and 6 mM KBr. Homogenates were freeze-thawed three times and sonicated."}, "[2]": {"test_system": "Guinea Pig Model of Passive Conjunctival Anaphylaxis", "test": "Passive conjunctival anaphylaxis, acute phase clinical score of conjunctivitis", "assay_type": "in vivo", "details": "0.1% topical 20 μL drop 60 min prior to ovalbumin challenge, scored 30 min after challenge; for Clinical Score Mean: total score 0 to 10, groups of six; for Clinical Score % Inhibition: versus vehicle only, * P < 0.05", "protocol": "as §1"}}, "data": [{"smiles": "COc1ccc([C@]2(C#N)CC[C@@H](C(=O)O)CC2)cc1OC1CCCC1", "note": "[Cilomilast]", "values": [{"measurement": "EPO Activity % Inhibition", "setting": "[1]", "result": "62.8* %"}, {"measurement": "EPO Activity Mean", "setting": "[1]", "result": 582.26, "unit": "ng EPO/mg tisue"}, {"measurement": "Clinical Score Mean", "setting": "[2]", "result": 4.2}, {"measurement": "Clinical Score % Inhibition", "setting": "[2]", "result": 37.5, "unit": "%"}]}, {"smiles": "CN(C)CC/C=C1/c2ccccc2COc2ccc(CC(=O)O)cc21", "note": "[Olopatadine]", "values": [{"measurement": "EPO Activity % Inhibition", "setting": "[1]", "result": 15.8, "unit": "%"}, {"measurement": "EPO Activity Mean", "setting": "[1]", "result": 1320.23, "unit": "ng EPO/mg tisue"}, {"measurement": "Clinical Score Mean", "setting": "[2]", "result": 2.2}, {"measurement": "Clinical Score % Inhibition", "setting": "[2]", "result": "67.5* %"}]}]}
